Data published in PubChem BioAssay AID1259407 (Chemical Carcinogenesis Research Information System (CCRIS), 2018).
Activity calls are given as the source filed them. No rule for the calls is given here.

Tested on: CCRIS mutagenicity, Ames/micronucleus/aberration tests
Assay: CCRIS mutagenicity studies
[1] = Test System: AMES SALMONELLA TYPHIMURIUM, Strain/Indicator: TA98, Metabolic Activation: NONE, Method: STANDARD PLATE
[2] = Test System: AMES SALMONELLA TYPHIMURIUM, Strain/Indicator: TA100, Metabolic Activation: NONE, Method: STANDARD PLATE

## CC(C)CO
Test System: AMES SALMONELLA TYPHIMURIUM, Strain/Indicator: TA97, Metabolic Activation: HAMSTER, LIVER, S-9, AROCLOR 1254 (10 OR 30%), Method: PREINCUBATION
  mutagenic call: inactive; negative
Test System: AMES SALMONELLA TYPHIMURIUM, Strain/Indicator: TA97, Metabolic Activation: NONE, Method: PREINCUBATION
  mutagenic call: inactive; negative
Test System: AMES SALMONELLA TYPHIMURIUM, Strain/Indicator: TA97, Metabolic Activation: RAT, LIVER, S-9, AROCLOR 1254 (10 OR 30%), Method: PREINCUBATION
  mutagenic call: inactive; negative
Test System: AMES SALMONELLA TYPHIMURIUM, Strain/Indicator: TA98, Metabolic Activation: HAMSTER, LIVER, S-9, AROCLOR 1254 (10 OR 30%), Method: PREINCUBATION
  mutagenic call: inactive; negative
Test System: AMES SALMONELLA TYPHIMURIUM, Strain/Indicator: TA98, Metabolic Activation: NONE, Method: PREINCUBATION
  mutagenic call: inactive; negative
Test System: AMES SALMONELLA TYPHIMURIUM, Strain/Indicator: TA98, Metabolic Activation: RAT, LIVER, S-9, AROCLOR 1254 (10 OR 30%), Method: PREINCUBATION
  mutagenic call: inactive; negative
Test System: AMES SALMONELLA TYPHIMURIUM, Strain/Indicator: TA98, Metabolic Activation: RAT, LIVER, S-9, KC 500, Method: PREINCUBATION
  mutagenic call: inactive; negative
Test System: AMES SALMONELLA TYPHIMURIUM, Strain/Indicator: TA100, Metabolic Activation: HAMSTER, LIVER, S-9, AROCLOR 1254 (10 OR 30%), Method: PREINCUBATION
  mutagenic call: inactive; negative
Test System: AMES SALMONELLA TYPHIMURIUM, Strain/Indicator: TA100, Metabolic Activation: NONE, Method: PREINCUBATION
  mutagenic call: inactive; negative
Test System: AMES SALMONELLA TYPHIMURIUM, Strain/Indicator: TA100, Metabolic Activation: RAT, LIVER, S-9, AROCLOR 1254 (10 OR 30%), Method: PREINCUBATION
  mutagenic call: inactive; negative
Test System: AMES SALMONELLA TYPHIMURIUM, Strain/Indicator: TA100, Metabolic Activation: RAT, LIVER, S-9, KC 500, Method: PREINCUBATION
  mutagenic call: inactive; negative
Test System: AMES SALMONELLA TYPHIMURIUM, Strain/Indicator: TA1535, Metabolic Activation: HAMSTER, LIVER, S-9, AROCLOR 1254 (10 OR 30%), Method: PREINCUBATION
  mutagenic call: inactive; negative
Test System: AMES SALMONELLA TYPHIMURIUM, Strain/Indicator: TA1535, Metabolic Activation: NONE, Method: PREINCUBATION
  mutagenic call: inactive; negative
Test System: AMES SALMONELLA TYPHIMURIUM, Strain/Indicator: TA1535, Metabolic Activation: RAT, LIVER, S-9, AROCLOR 1254 (10 OR 30%), Method: PREINCUBATION
  mutagenic call: inactive; negative
Test System: AMES SALMONELLA TYPHIMURIUM, Strain/Indicator: TA1535, Metabolic Activation: RAT, LIVER, S-9, KC 500, Method: PREINCUBATION
  mutagenic call: inactive; negative
Test System: AMES SALMONELLA TYPHIMURIUM, Strain/Indicator: TA1537, Metabolic Activation: HAMSTER, LIVER, S-9, AROCLOR 1254 (30%), Method: PREINCUBATION
  mutagenic call: inactive; negative
Test System: AMES SALMONELLA TYPHIMURIUM, Strain/Indicator: TA1537, Metabolic Activation: NONE, Method: PREINCUBATION
  mutagenic call: inactive; negative
Test System: AMES SALMONELLA TYPHIMURIUM, Strain/Indicator: TA1537, Metabolic Activation: RAT, LIVER, S-9, AROCLOR 1254 (30%), Method: PREINCUBATION
  mutagenic call: inactive; negative
Test System: AMES SALMONELLA TYPHIMURIUM, Strain/Indicator: TA1537, Metabolic Activation: RAT, LIVER, S-9, KC 500, Method: PREINCUBATION
  mutagenic call: inactive; negative
Test System: AMES SALMONELLA TYPHIMURIUM, Strain/Indicator: TA1538, Metabolic Activation: NONE, Method: PREINCUBATION
  mutagenic call: inactive; negative
Test System: AMES SALMONELLA TYPHIMURIUM, Strain/Indicator: TA1538, Metabolic Activation: RAT, LIVER, S-9, KC 500, Method: PREINCUBATION
  mutagenic call: inactive; negative
Test System: Ames Salmonella typhimurium, Strain/Indicator: TA98, Metabolic Activation: None, Method: Preincubation
  mutagenic call: inactive; negative
Test System: Ames Salmonella typhimurium, Strain/Indicator: TA98, Metabolic Activation: Rat, Liver, S-9, Phenobarbital and 5,6-benzoflavone, Method: Preincubation
  mutagenic call: inactive; negative
Test System: Ames Salmonella typhimurium, Strain/Indicator: TA100, Metabolic Activation: None, Method: Preincubation
  mutagenic call: inactive; negative
Test System: Ames Salmonella typhimurium, Strain/Indicator: TA100, Metabolic Activation: Rat, Liver, S-9, Phenobarbital and 5,6-benzoflavone, Method: Preincubation
  mutagenic call: inactive; negative
Test System: Ames Salmonella typhimurium, Strain/Indicator: TA1535, Metabolic Activation: None, Method: Preincubation
  mutagenic call: inactive; negative
Test System: Ames Salmonella typhimurium, Strain/Indicator: TA1535, Metabolic Activation: Rat, Liver, S-9, Phenobarbital and 5,6-benzoflavone, Method: Preincubation
  mutagenic call: inactive; negative
Test System: Ames Salmonella typhimurium, Strain/Indicator: TA1537, Metabolic Activation: None, Method: Preincubation
  mutagenic call: inactive; negative
Test System: Ames Salmonella typhimurium, Strain/Indicator: TA1537, Metabolic Activation: Rat, Liver, S-9, Phenobarbital and 5,6-benzoflavone, Method: Preincubation
  mutagenic call: inactive; negative
Test System: CHINESE HAMSTER V-79, Strain/Indicator: V-79 (HPRT)/6-THIOGUANINE, Metabolic Activation: NONE, Method: STANDARD PLATE
  mutagenic call: inactive; negative
Test System: CHINESE HAMSTER V-79, Strain/Indicator: V-79 (HPRT)/6-THIOGUANINE, Metabolic Activation: RAT LIVER S-9, Method: STANDARD PLATE
  mutagenic call: inactive; negative
Test System: E. COLI, Strain/Indicator: WP2 UVRA, Metabolic Activation: NONE, Method: PREINCUBATION
  mutagenic call: inactive; negative
Test System: E. COLI, Strain/Indicator: WP2 UVRA, Metabolic Activation: RAT, LIVER, S-9, KC 500, Method: PREINCUBATION
  mutagenic call: inactive; negative
Test System: E. coli, Strain/Indicator: WP2uvrA/pKM101, Metabolic Activation: None, Method: Preincubation
  mutagenic call: inactive; negative
Test System: E. coli, Strain/Indicator: WP2uvrA/pKM101, Metabolic Activation: Rat, Liver, S-9, Phenobarbital and 5,6-benzoflavone, Method: Preincubation
  mutagenic call: inactive; negative

## Nc1cc2c(cc1[N+](=O)[O-])[nH]c1ccccc12
[1]
  mutagenic call: active; positive
Test System: AMES SALMONELLA TYPHIMURIUM, Strain/Indicator: TA98, Metabolic Activation: RAT, LIVER, S-9, PHENOBARBITAL, Method: STANDARD PLATE
  mutagenic call: active; positive
[2]
  mutagenic call: active; positive
Test System: AMES SALMONELLA TYPHIMURIUM, Strain/Indicator: TA100, Metabolic Activation: RAT, LIVER, S-9, PHENOBARBITAL, Method: STANDARD PLATE
  mutagenic call: active; positive
Test System: AMES SALMONELLA TYPHIMURIUM, Strain/Indicator: TA1537, Metabolic Activation: NONE, Method: STANDARD PLATE
  mutagenic call: active; positive
Test System: AMES SALMONELLA TYPHIMURIUM, Strain/Indicator: TA1537, Metabolic Activation: RAT, LIVER, S-9, PHENOBARBITAL, Method: STANDARD PLATE
  mutagenic call: active; positive
Test System: AMES SALMONELLA TYPHIMURIUM, Strain/Indicator: TA1538, Metabolic Activation: NONE, Method: STANDARD PLATE
  mutagenic call: active; positive
Test System: AMES SALMONELLA TYPHIMURIUM, Strain/Indicator: TA1538, Metabolic Activation: RAT, LIVER, S-9, PHENOBARBITAL, Method: STANDARD PLATE
  mutagenic call: active; positive
Test System: AMES SALMONELLA TYPHIMURIUM, Strain/Indicator: TA1977, Metabolic Activation: NONE, Method: STANDARD PLATE
  mutagenic call: active; positive
Test System: AMES SALMONELLA TYPHIMURIUM, Strain/Indicator: TA1977, Metabolic Activation: RAT, LIVER, S-9, PHENOBARBITAL, Method: STANDARD PLATE
  mutagenic call: active; positive

## Nc1ccc(-c2ccc(Cl)cc2)cc1
[1]
  mutagenic call: inactive; negative
Test System: AMES SALMONELLA TYPHIMURIUM, Strain/Indicator: TA98, Metabolic Activation: RAT, LIVER, S-9, AROCLOR 1254, Method: STANDARD PLATE
  mutagenic call: active; positive
[2]
  mutagenic call: inactive; negative
Test System: AMES SALMONELLA TYPHIMURIUM, Strain/Indicator: TA100, Metabolic Activation: RAT, LIVER, S-9, AROCLOR 1254, Method: STANDARD PLATE
  mutagenic call: active; positive

## Cc1c(C)c2c3c(ccc2c2ccccc12)[C@@H](O)[C@H](O)[C@@H]1O[C@H]31
[2]
  mutagenic call: active; positive
